Results published in patent publication US20210205292A1, “INHIBITORS OF CREB-CBP INTERACTION FOR TREATMENT OF LEUKEMIA” (The Board of Trustees of the Leland Stanford Junior …, priority 2016, published 2021).
“Also recorded” adds a separate entry of the source. Each block holds one compound with its values, some of them ahead of it.

How the values were obtained:
HL-60 cells [1] = experiment: Flow cytometry of apoptosis (c-PARP+, aqua amine+) in HL-60 cells; assay type: cell-based, human; settings: 50 to 200 nM, 72 hours
Procedure: AML cell lines were purchased from ATCC and maintained with IMDM (Gibco) supplemented with 10% FBS (Fisher Scientific) and 1% PSG (Gibco). Cells were plated at a density of 2-4×10^5 cells/ml, and treated with various doses of Compound A in 0.1% DMSO or 0.1% DMSO alone. Cell counts and viability were determined using the Vi-CELL XR Cell Viability Analyzer (Beckman Coulter). HL-60 and KG-1 cells overexpressing CREB or CBP were generated using lentiviral gene delivery with subsequent puromycin selection and FACs sorting for GFP. CREB knockdown was achieved by infecting cells with a lentivirus expressing the shRNA sequence 5′-[…]-3′ (SEQ ID NO:). For chemotherapy combination experiments, combination index values were calculated using median effects analysis on Calcusyn software. Human patient bone marrow samples were cultured in DMEM plus 20% FBS and 1×PSG, supplemented with recombinant GM-CSF (20 ng/ml), G-CSF (20 ng/ml), SCF (50 ng/ml), IL-3 (20 ng/ml), and IL-6 (10 ng/ml). Cells were plated at a concentration of 1×10^5 cells/ml in a 12-well plate. Vehicle (0.1% DMSO) or Compound A (2 μM) was added for up to 72 hours. All samples contained >85% AML blasts and were not sorted prior to performing experiments. […] Single cell suspensions of bone marrow culture were subsequently analyzed on a D×P10 flow cytometer (Cytek). […]

HL-60 cells [2] = experiment: HL-60 cell viability, Trypan blue exclusion assay; assay type: cell-based, human; settings: 50 nM, 48 hours
Excerpt: FIG. 11, panels A-D, illustrates ABT-737 Causes Apoptosis in HL-60 Cells; CyTOF Gating Scheme. […] Panel D) CyTOF gating scheme, used to perform analysis specifically on AML cells within AML patient marrow samples.

CREB phosphorylation = CREB phosphorylation in HL-60 cells; assay type: cell-based, human; settings: HL-60 cells; BI-D1870 5 μM, SB202190 10 μM, U0126 10 μM
Excerpt: FIG. 12, panels A-D, illustrates the results of CyTOF Phenotyping and Compound A Combination Studies. […] Viability for Compound A treatment alone was 87.4±7.3%, versus 55.3±3.4% and 49.5±2.3% when combined with ERK and RSK inhibitors, respectively (* indicates p<0.05 compared to cells treated with Compound A alone). Panel D) Compound A inhibits CREB phosphorylation in the presence of serum. HL-60 cells were serum-starved then stimulated with serum.
Cells were lysed in RIPA buffer (Sigma), and the protein concentrations were determined by BCA assay (Thermo Scientific Pierce). Lysates were solubilized in 6×SDS PAGE buffer and […] of protein was loaded into 6-15% SDS PAGE gels, pheresed, and then transferred onto […] PVDF membrane (Millipore). Primary antibodies were applied at a dilution of 1:1000. Anti-Bcl-2, -Bax, -Mcl-1, -Bcl-XL, -Cyclin A and -Cyclin D1 antibodies were purchased from Cell Signaling Technologies. Anti-total acetylated histone and -ac-H3K27 were purchased from Santa Cruz Biotechnologies. Anti-actin and -CREB antibodies were purchased from upstate. Secondary antibodies were used at a 1:2500 dilution and purchased from Thermo Scientific/Pierce. WesternBright ECL was used for image acquisition on Image Lab software (Bio-Rad).

HL-60 cells [3] = experiment: HL-60 viability, combination of Compound A with kinase inhibitors; assay type: cell-based, human; settings: 48 hours
[4] = system: HL60 (Human promyelocytic leukemia cell line); experiment: CellTiter Glo assay in HL60 cells; assay type: cell-based
Procedure: (§1) The compounds prepared according to the methods described herein and tested for activity in the CellTiter Glo assay in HL60 (Human promyelocytic leukemia cell line), Jukat (human T lymphocyte cell line for acute T cell leukemia) and/or Nalm6 (human ALL cell line) cells.
(§2) Compounds were prepared according to the methods described herein and tested for activity in the CellTiter Glo assay in HL60 (Human promyelocytic leukemia cell line), Jukat (human T lymphocyte cell line for acute Tcell leukemia) and/or Nalm6 (human ALL cell line) cells.

[5] = system: Jukat (human T lymphocyte cell line for acute T cell leukemia); experiment: CellTiter Glo assay in Jukat cells; assay type: cell-based
Procedure: as §1, §2

[6] = system: Nalm6 (human ALL cell line); experiment: CellTiter Glo assay in Nalm6 cells; assay type: cell-based
Procedure: as §1, §2

Caspase-3 = Caspase-3 protease activity (ApoTarget kit); assay type: cell-based; settings: etoposide control
Excerpt: The ApoTarget Caspase-3 Protease Activity Kit (Invitrogen) was used per manufacturer's instructions.
The balance between pro- and anti-apoptotic protein expression contributes to cell fate decisions. CREB regulates the expression of several anti-apoptotic proteins, including Bcl-2, Bcl-XL and Mcl-1. Bcl-2 expression in particular is known to mediate resistance to chemotherapy and influence clinical outcome in a number of cancer types, including AML. The ability of Compound A to cause apoptosis by disrupting the CREB-driven expression of these anti-apoptotic proteins was examined. In HL-60 cells treated with Compound A, apoptosis is induced in a dose- and time-dependent manner. […] Compound A elicited apoptosis through the intrinsic apoptosis pathway, with activation of Caspase-3 (FIG. 5, panel B) and detectable Caspase-9 cleavage (data not shown). Relative caspase-3 activity at 24 hours: 5.4±0.8 for etoposide, 1±0.78, 0.93±0.71, 1.02±0.67, 2.9±0.58, 5.1±0.63, 4.1±0.71 for 0, 1, 1.5, 2, 2.5 and 3 mM Compound A, respectively. Activity at 72 hours: 1.2±0.05 for etoposide, 1.0±0.02, 1.9±0.03, 3.7±0.04, 4.4±0.05, 2.1±0.03, 1.9±0.02 for 0, 1, 1.5, 2, 2.5 and 3 mM Compound A, respectively. The transcription of Bcl-2 decreased following 72 hours of 2 mM Compound A treatment (FIG. 5, panel C), and this was verified by Western blot analysis (FIG. 5, panel D). […] To confirm whether loss of Bcl-2 function alone is sufficient to induce apoptosis in AML cells, HL-60 cells were treated with the validated Bcl-2 inhibitor ABT-737 (50 to 200 nM). […] Bcl-2 levels are influenced by CREB expression in these AML cell lines (FIG. 11, panel C).

[7] = system: CREB-driven promoter (CRE); experiment: CREB-driven (CRE) luciferase reporter in KG-1 cells; assay type: cell-based; settings: KG-1 cells, 6 hours; 3, 10 and 30 μM
Procedure: (§3) KG-1 cell lines were created to express luciferase in a CREB-dependent or non-CREB-dependent fashion using lentiviral gene delivery. Cells were sorted for mCherry expression by flow cytometry and selected with puromycin. Luciferase activity was measured on a […] using the Promega Luciferase Activity Kit (Promega) per manufacturer's instructions following six hours of treatment with Compound A or 0.1% DMSO. The split Renilla luciferase complementation assay has been described previously (Li BX, and Xiao X. Discovery of a small-molecule inhibitor of the KIX-KID interaction. Chembiochem: a European journal of chemical biology. 2009; 10(17):2721-4). In this assay, the KID and KIX domains were fused to the N- and C-terminal regions of Renilla luciferase, respectively. Once KIX binds phosphorylated KID, the Renilla luciferase regions were brought together, resulting in luciferase activity.
(§4) To test the ability of Compound A to disrupt CREB-CBP binding in cells, a split Renilla luciferase complementation assay was performed. […] This early timepoint was selected to permit accurate reporter gene activity measurement prior to the onset of anticipated global cell dysfunction or death induced by Compound A. Treatment with 3 μM Compound A reduced luciferase activity by 33.2±7.7% at this timepoint. […] Thus, Compound A inhibits CREB function through disruption of CREB:CBP interaction.

CMV-driven promoter = experiment: CMV-driven luciferase reporter in KG-1 cells; assay type: cell-based; settings: 6 hours
Procedure: as §3, §4

KG-1 cells = experiment: Viable cell count of engineered KG-1 cell lines (CREB KD, GFP, CREB OE, CBP OE); assay type: cell-based; settings: same four KG-1 cell lines, 30 μM
Procedure: AML cell lines were purchased from ATCC and maintained with IMDM (Gibco) supplemented with 10% FBS (Fisher Scientific) and 1% PSG (Gibco). Cells were plated at a density of 2-4×10^5 cells/ml, and treated with various doses of Compound A in 0.1% DMSO or 0.1% DMSO alone. Cell counts and viability were determined using the Vi-CELL XR Cell Viability Analyzer (Beckman Coulter). HL-60 and KG-1 cells overexpressing CREB or CBP were generated using lentiviral gene delivery with subsequent puromycin selection and FACs sorting for GFP. CREB knockdown was achieved by infecting cells with a lentivirus expressing the shRNA sequence 5′-[…]-3′ (SEQ ID NO:). For chemotherapy combination experiments, combination index values were calculated using median effects analysis on Calcusyn software. Human patient bone marrow samples were cultured in DMEM plus 20% FBS and 1×PSG, supplemented with recombinant GM-CSF (20 ng/ml), G-CSF (20 ng/ml), SCF (50 ng/ml), IL-3 (20 ng/ml), and IL-6 (10 ng/ml). Cells were plated at a concentration of 1×10^5 cells/ml in a 12-well plate. Vehicle (0.1% DMSO) or Compound A (2 μM) was added for up to 72 hours. All samples contained >85% AML blasts and were not sorted prior to performing experiments. Immunostaining and flow cytometry analyses were performed according to standard procedures. All antibodies were purchased from BD Biosciences. Single cell suspensions of bone marrow culture were subsequently analyzed on a D×P10 flow cytometer (Cytek). Bone marrow from AML patients were collected through voluntary patient participation at University of California, Los Angeles (Los Angeles, Calif., USA) and Stanford University (Palo Alto, Calif., USA) in compliance with the Institutional Review Board regulations of each institution.
To test the effects of CREB inhibition on AML cells, four AML cell lines were treated with doses of Compound A ranging from 100 pM to 10 μM for 48 hours. […] KG-1 cells were less sensitive to Compound A and expressed lower levels of CREB compared to HL-60 cells (FIG. 2, panel A). CREB was overexpressed to determine whether sensitivity of KG-1 cells to Compound A could be increased. KG-1 cell lines in which CREB or CBP was overexpressed, or CREB was knocked down by shRNA, were generated (FIG. 2C). A KG-1 cell line expressing only GFP was used as a control. These cell lines were treated with a range of Compound A concentrations for 48 hours (FIG. 2D). Experiments were also performed to examine the efficacy of combining Compound A with cytarabine or daunorubicin, standard drugs used in AML therapy.

Compound: CN(C)CC[C@H](CSc1ccccc1)Nc1ccc(S(=O)(=O)NC(=O)c2ccc(N3CCN(Cc4ccccc4-c4ccc(Cl)cc4)CC3)cc2)cc1[N+](=O)[O-] [ABT-737, reference compound]
- apoptosis (HL-60 cells [1]): Apoptosis was induced
- cell viability (HL-60 cells [2]): reduced cell viability

Compound: CC(C)CCN1c2nc(Nc3cc(F)c(O)c(F)c3)ncc2N(C)C(=O)C1C (centres unmarked) [BI-D1870, reference compound]
- compensatory CREB phosphorylation following Compound A treatment (CREB phosphorylation): blocked compensatory CREB phosphorylation
- effect of combination with Compound A on viability (HL-60 cells [3]): additive effects

- IC50 ([4]; HL-60, Table 5): 0.1 to 1 µM
- IC50 ([5]; Table 5): 0.1 to 1 µM
Compound: O=C(Nc1ccc([N+](=O)[O-])cc1Cl)c1ccc2cccnc2c1O [Compound 82]
- IC50 ([6]; NALM-6, Table 5): < 0.1 µM

- IC50 ([4]; HL-60, Table 5): 1 to 10 µM
- IC50 ([5]; Table 5): 0.1 to 1 µM
Compound: O=C(Nc1cc(Cl)ccc1Cl)c1ccc2cccnc2c1O [Compound 83]
- IC50 ([6]; NALM-6, Table 5): 0.1 to 1 µM

- IC50 ([4]; HL-60, Table 5): 0.1 to 1 µM
- IC50 ([5]; Table 5): < 0.1 µM
Compound: N#Cc1cc(Cl)ccc1NC(=O)c1ccc2cccnc2c1O [Compound 84]
- IC50 ([6]; NALM-6, Table 5): 0.1 to 1 µM

- IC50 ([4]; HL-60, Table 5): 0.1 to 1 µM
- IC50 ([5]; Table 5): 0.1 to 1 µM
Compound: N#Cc1ccc(NC(=O)c2ccc3cccnc3c2O)c(C#N)c1 [Compound 85]
- IC50 ([6]; NALM-6, Table 5): 0.1 to 1 µM

- IC50 ([4]; HL-60, Table 5): 1 to 10 µM
- IC50 ([5]; Table 5): 0.1 to 1 µM
Compound: Cc1ccc(C#N)c(NC(=O)c2ccc3cccnc3c2O)c1 [Compound 86]
- IC50 ([6]; NALM-6, Table 5): 0.1 to 1 µM

- IC50 ([4]; HL-60, second Table 4): < 1 µM
- IC50 ([5]; second Table 4): < 1 µM
Compound: N#Cc1ccc(NC(=O)c2ccc(-c3ccccc3)cc2O)cc1 [Compound 101]
- IC50 ([6]; NALM-6, second Table 4): < 1 µM

- IC50 ([4]; HL-60, second Table 4): < 1 µM
- IC50 ([5]; second Table 4): < 1 µM
Compound: O=C(Nc1cc(C(F)(F)F)cc(C(F)(F)F)c1)c1cc(Br)ccc1O [Compound 159]
- IC50 ([6]; NALM-6, second Table 4): < 1 µM

- IC50 ([4]; HL-60, second Table 4): < 1 µM
- IC50 ([5]; second Table 4): < 1 µM
Compound: N#Cc1ccc(NC(=O)c2cc(Cl)c(F)cc2O)cc1 [Compound 161]
- IC50 ([6]; NALM-6, second Table 4): > 10 µM

- IC50 ([4]; HL-60, second Table 4): 1 to 10 µM
- IC50 ([5]; second Table 4): 1 to 10 µM
Compound: N#Cc1ccc(NC(=O)c2cc(-c3cc(F)cc(F)c3)ccc2O)cc1 [Compound 233]
- IC50 ([6]; NALM-6, second Table 4): 1 to 10 µM

Compound: Oc1ccc(-c2nc(-c3ccncc3)c(-c3ccc(F)cc3)[nH]2)cc1 [SB202190, reference compound]
- compensatory CREB phosphorylation following Compound A treatment (CREB phosphorylation): blocked compensatory CREB phosphorylation
- effect of combination with Compound A on viability (HL-60 cells [3]): additive effects

Compound: COc1cc([C@@H]2c3cc4c(cc3[C@@H](O[C@@H]3O[C@@H]5CO[C@@H](C)O[C@H]5[C@H](O)[C@H]3O)[C@H]3COC(=O)[C@H]23)OCO4)cc(OC)c1O [etoposide, reference compound]
- relative caspase-3 activity (Caspase-3; 24 hours): 5.4±0.8
- relative caspase-3 activity (Caspase-3; 72 hours): 1.2±0.05

Compound: N-methyl-(4-chlorophenyl)-3-hydroxy-naphthamide [Analog B, reference compound]
- CREB-driven luciferase activity [7]: No statistical difference; also recorded: no significant effect
- CMV-driven luciferase expression (CMV-driven promoter): No statistical difference; also recorded: no significant effect
- viability or proliferation rate (KG-1 cells): no reduction in viability or proliferation rate
